Data on one compound can be found in patent US11786494B2, “Methods of modulation of branched chain acids and uses thereof” (Baylor College of Medicine, priority 2009, dated 2023).

Assay [1] deals with T1, mitochondrial branched chain amino transferase (BCATm) (Homo sapiens, UniProt O15382).
T1 sequence (O15382 28-392): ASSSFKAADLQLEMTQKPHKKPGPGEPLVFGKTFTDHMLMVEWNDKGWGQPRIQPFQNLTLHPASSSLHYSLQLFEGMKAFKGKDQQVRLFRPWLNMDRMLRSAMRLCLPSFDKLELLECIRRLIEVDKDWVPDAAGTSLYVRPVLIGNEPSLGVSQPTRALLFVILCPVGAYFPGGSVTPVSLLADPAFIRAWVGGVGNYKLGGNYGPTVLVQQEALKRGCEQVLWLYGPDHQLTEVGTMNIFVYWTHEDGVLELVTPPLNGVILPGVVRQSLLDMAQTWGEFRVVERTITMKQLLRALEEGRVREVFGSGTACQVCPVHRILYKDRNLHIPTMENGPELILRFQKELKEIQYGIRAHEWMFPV
Description: BCATm activity with purified recombinant enzyme. The format is biochemical. To be noted: pH 8.0, 298 K. The protocol: (§1) To determine the effect of phenylbutyrate on individual BCAA catabolic enzymes, activities of mitochondrial branched chain amino transferase (BCATm) and BCKDC enzymes were measured with and without phenylbutyrate using purified recombinant enzymes. BCATm generates the BCKA products that are elevated in MSUD and are the substrates for BCKDC. BCATm activity was measured at pH 8.0 and 298 K as described in Example 2. Kinetics of the E1 decarboxylase reaction with and without phenylbutyrate were determined in the presence of an artificial electron acceptor 2, 6-dichlorophenolindophenol (DCPIP). The assay mixture contained 100 mM potassium phosphate, pH 7.5, 2.0 mM MgCl2, 0.2 mM thiamin diphosphate (ThDP) and 0.1 mM DCPIP. The rate of decarboxylation at 30° C. was measured by monitoring the reduction of the dye at 600 nm (24, 25). For the overall BCKDC activity assay, the enzymes were exchanged into phosphate buffer (30 mM potassium phosphate, pH 7.5) containing 5 mM DTT using a PD-10 column and the enzyme concentrations were calculated from the absorption maxima at 280 nm. […] The overall reaction was monitored by formation of NADH at 340 nm. The apparent rate constants (kapp) at different substrate concentrations for all of the above assays were determined from the absorption changes at the individual wavelength maximum. […]

Assay [2] addresses T2, phosphorylated E1 (Homo sapiens, UniProt P12694+P21953).
T2 sequence (P12694 46-445): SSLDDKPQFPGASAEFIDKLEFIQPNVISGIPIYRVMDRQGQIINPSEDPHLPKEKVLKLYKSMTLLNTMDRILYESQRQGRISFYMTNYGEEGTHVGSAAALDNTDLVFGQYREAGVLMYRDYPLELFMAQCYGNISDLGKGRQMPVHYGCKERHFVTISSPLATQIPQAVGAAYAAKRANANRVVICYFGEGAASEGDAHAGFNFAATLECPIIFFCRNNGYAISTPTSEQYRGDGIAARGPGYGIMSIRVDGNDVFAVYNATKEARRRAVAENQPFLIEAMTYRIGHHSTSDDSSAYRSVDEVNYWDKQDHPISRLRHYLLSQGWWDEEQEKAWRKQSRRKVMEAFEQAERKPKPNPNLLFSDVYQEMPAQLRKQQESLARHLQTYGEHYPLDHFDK
T2 sequence (P21953 51-392): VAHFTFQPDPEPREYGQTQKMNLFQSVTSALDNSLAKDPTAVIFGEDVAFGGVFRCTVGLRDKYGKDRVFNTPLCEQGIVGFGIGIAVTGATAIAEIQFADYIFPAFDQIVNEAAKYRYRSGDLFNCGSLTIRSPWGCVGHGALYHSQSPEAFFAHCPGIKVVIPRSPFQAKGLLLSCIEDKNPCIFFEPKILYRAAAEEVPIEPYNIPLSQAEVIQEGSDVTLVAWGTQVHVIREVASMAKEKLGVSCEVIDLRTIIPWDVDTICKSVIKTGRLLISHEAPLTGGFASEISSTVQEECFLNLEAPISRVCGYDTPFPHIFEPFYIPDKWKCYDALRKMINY
Description: E1 decarboxylase activity measured after inactivation by BDK. It is filed as biochemical. As to the method:
as §1

Assay [3] relates to E1α-phospho/E1α, E2, BCATm, BCATc. The assay can be described thus: Western blotting of BCKD complex and BCAT isozymes in lymphoblast cells. It is filed as cell-based, human.
The test system of assay [4] is BCKDC. The assay can be described thus: Leucine oxidation in lymphoblast cells in presence of CIC. It is filed as cell-based, human. The note with it: patient 3 lymphoblasts, 1 mM phenylbutyrate 48 h, 1 mM CIC in the assay. The protocol: (§2) FIGS. 8A-8C. FIGS. 8A and 8B show leucine oxidation in presence of CIC in lymphoblast cells from control subjects (C-660, C-661) and MSUD patients (P-1, -2, -3, -4, -5) untreated or treated with 1 mM phenylbutyrate for 48 h. Leucine oxidation was measured by using radioactive assay as described in Materials and Methods and is expressed in pmol CO2 released/min/mg protein. CIC was added to all reactions in 1 mM concentration. Values are means±SD (n=3), * p≥0.05, **p≥0.01. […] Images are representative of two independent experiments.
(§3) Because phenylbutyrate affects E1α phosphorylation state in vivo (see FIG. 5), leucine oxidation was measured in the same cell lines as in FIG. […] with CIC in the assay. […] Changes in BCAT isoenzyme activity also impacts BCKA production, in specific cases. All patient cell lines accumulated more KIC than observed in control cell lines.

In assay [5] the target is T3, BCKDC (Homo sapiens, UniProt P12694+P21953).
T3 sequence (P12694 46-445): T2 sequence (P12694 46-445)
T3 sequence (P21953 51-392): T2 sequence (P21953 51-392)
The description is as above. The format is cell-based. The arrangement: Transformed lymphoblast cell lines were available from all 5 MSUD patients and from 2 controls to measure BCKDC activity; endogenous in cells. The note with it: control lymphoblasts, 1 mM phenylbutyrate 48 h, 1 mM CIC in the assay. The protocol: as §2, §3

Turning to `O=C([O-])CCCc1ccccc1.[Na+]` [phenylbutyrate, sodium 4-phenylbutyrate], in assay [1], the “BCATm kinetics including kcat and Km” value was “no effect”. Besides, the “effect on phosphorylated E1 (inactive enzyme)” value in assay [2] is listed as “did not have an effect”. Further, in assay [2] (E1 phosphorylated first with BDK (0.1 μg) and ATP (0.4 mM), [+] Phenylbutyrate), the “kcat, KMV” value was 0.6 ± 0.1 min⁻¹. Moreover, in assay [3] (all of the lymphoblasts but patient 5, 1 mM 48 h), the “levels of cytosolic isozyme BCATc” value was “appeared to increase”. The “levels of the mitochondrial isozyme BCATm” value in assay [3] (both controls and patients 1 through 3, 1 mM 48 h) is given as “slightly elevated”. The “phosphorylation state of E1α” value in assay [3] (lymphoblasts from controls and patients 1, 2 and 3, 1 mM phenylbutyrate 48 h) is “Neither the controls nor patients 1, 2 and 3 responded”; in assay [3] (lymphoblasts from patients 4 and 5, 1 mM phenylbutyrate 48 h, no apparent change in E1 levels) it was “decrease”. In addition, the leucine oxidation rates result in assay [4] is given as “nearly doubled”. For the same compound, the leucine oxidation result in assay [5] was “increased”.
